Laboratory results: patent publication US20260109699A1, “AZOLE DERIVATIVES AS SHP2 INHIBITORS” (IRBM S.P.A., priority 2022, published 2026)

Assays:
[1] = test system: phospho-ERK1/2 (Thr202/Tyr204); assay: Phospho-ERK cellular assay; assay type: cell-based; settings: Homo sapiens; KYSE-520 cells, 2 h at 37° C, TR-FRET; read-out: pERK IC50
Protocol: ERK phosphorylation was detected using the “Advanced phospho-ERK1/2 (Thr202/Tyr204)” TR-FRET kit (Cisbio, Cat #64AERPEG/H), following the manufacturer reagents and instructions.
Briefly, 20.000/well KYSE-520 cells (DSMZ ACC 371) were plated in 6 μL RPMI-1640 (Invitrogen) growth medium, into 384 white low-volume high base TC microplates (Greiner). After an overnight incubation, cells were treated with DMSO serial diluted compounds and incubated for 2 h at 37° C. After incubation, 2 μL/well of 4×Lysis Buffer (Cisbio 64KL1FDF), were added and incubated with cells for 30 min on gentle shaking. Finally, lysates were added with 2 μL/well of Eu cryptate (donor) and D2 (acceptor) conjugated antibodies (as provided by the Cisbio kit #64AERPEG/H) diluted 1:100 in Detection Buffer (as provided by the Cisbio kit #64AERPEG/H). Plates were then sealed and incubated at rt in the dark. After an overnight incubation, the TR-FRET signal was detected on a suitable reader (Envision, PerkinElmer).
The lower the TR-FRET signal the higher the higher the SHP2 inhibition in cells.
The activity of each compound dilution was calculated as percentage between vehicle DMSO treated cells and no cells, 0% inhibition and 100% inhibition respectively. The percentage activity is fitted against the compound dilutions with a four-parameter logistic regression. The inflection point (i.e. the concentration at which half-maximal inhibition is achieved) is the IC50.
Legend: “+” indicates IC50 equal or higher than 0.5 μM; “++” indicates IC50 less than 0.5 μM and higher or equal to 0.1 μM; “+++” indicates IC50 less than 0.1 μM.

[2] = biological target: T1, SHP-2 enzyme (Met1-Leu525), SHP2wt (Homo sapiens, UniProt Q06124); assay: SHP2 inhibition enzymatic assay; assay type: biochemical; settings: 0.5 nM SHP-2 activated by 500 nM IRS1 peptide, 75 μM DiFMUP substrate
T1 construct: synthetized by Origene, Met1-Leu525, cat #TP750155; purchased Origene TP750155
T1 sequence (Q06124 1-525): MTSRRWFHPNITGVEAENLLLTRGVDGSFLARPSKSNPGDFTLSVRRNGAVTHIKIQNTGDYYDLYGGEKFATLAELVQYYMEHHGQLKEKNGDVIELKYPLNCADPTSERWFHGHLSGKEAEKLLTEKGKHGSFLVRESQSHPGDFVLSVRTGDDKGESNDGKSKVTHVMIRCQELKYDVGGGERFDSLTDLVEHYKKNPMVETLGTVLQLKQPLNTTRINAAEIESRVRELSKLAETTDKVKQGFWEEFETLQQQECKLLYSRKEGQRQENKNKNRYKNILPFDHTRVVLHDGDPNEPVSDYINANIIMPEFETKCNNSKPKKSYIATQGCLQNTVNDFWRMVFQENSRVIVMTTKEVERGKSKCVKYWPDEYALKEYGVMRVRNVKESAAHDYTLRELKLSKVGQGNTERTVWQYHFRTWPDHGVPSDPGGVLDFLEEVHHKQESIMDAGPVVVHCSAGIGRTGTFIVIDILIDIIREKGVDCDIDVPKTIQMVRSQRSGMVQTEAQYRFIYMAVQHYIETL
Protocol: The assay was performed as described in YP Chen et al, Nature (535) 2016. Assay volume of 20 μL/well was assembled in 384 well black polystyrene low-binding microplates (Greiner), using the following buffer: 60 mM HEPES pH 7.2, 75 mM NaCl, 75 mM KCl, 1 mM EDTA pH 8, 0.05% tween-20, 5 mM DTT. The SHP-2 enzyme (synthetized by Origene, Met1-Leu525, cat #TP750155) was used at a final concentration of 0.5 nM. The enzyme was activated by 500 nM IRS1 peptide (sequence: H2N-LN(pY)IDLDLV(dPEG8)LST(pY)ASINFQK-amide; Wang et al., iScience 25,104009, Apr. 15, 2022, https://doi.org/10.1016/j.isci.2022.104009) and incubated with 75 μM DiFMUP (Sigma) as substrate.
Briefly, DMSO serially diluted testing compounds were transferred to the bottom of the assay plate. SHP2 was then added together with the IRS1 peptide 30 min post incubation, the DiFMUP substrate was added to the reaction and incubated 30 min at rt. Finally 5 μL of 160 μM bpV (potassium bisperoxo[1,10-phenanthroline]oxovanadate [V], Sigma) were added to stop and quench the reaction. The fluorescence was detected by a microplate reader (Envision, PerkinElmer) according to the DiFMUP excitation and emission wavelength. The lower the fluorescence the higher the SHP2 inhibition.
The activity of each compound dilution was calculated as percentage of inhibition between vehicle (DMSO, 0% inhibition) and no enzyme (100% inhibition). The percentage inhibition is fitted against the compound dilutions with a four-parameter logistic regression. The inflection point (i.e. the concentration at which half-maximal inhibition is achieved) is the IC50.
Legend: A indicates IC50 less or equal to 0.05 μM; B indicates IC50 greater than 0.05 μM and lower or equal to 0.3 μM.

Compound | IC50 [1] [nM] | IC50 [2] [nM]
N[C@@H]1c2ccnn2CC12CCN(c1cnc(Sc3ccncc3)cn1)CC2 [Example 25, (S)-1-(5-(pyridin-4-ylthio)pyrazin-2-yl)-4′H,6′H-spiro[piperidine-4,5′-pyrrolo[1,2-b]pyrazol]-4′-amine] | < 100 | ≤ 50
N[C@@H]1c2cccn2CC12CCN(c1cnc(Sc3cccc(Cl)c3Cl)cn1)CC2 [Example 28, (S)-1-(5-((2,3-dichlorophenyl)thio)pyrazin-2-yl)-1′H,3′H-spiro[piperidine-4,2′-pyrrolizin]-1′-amine] | < 100 | ≤ 50
N[C@@H]1c2ccnn2CC12CCN(c1cnc(Sc3cccc(F)c3Cl)cn1)CC2 [Example 30, (S)-1-(5-((2-chloro-3-fluorophenyl)thio)pyrazin-2-yl)-4′H,6′H-spiro[piperidine-4,5′-pyrrolo[1,2-b]pyrazol]-4′-amine] | < 100 | ≤ 50
N[C@@H]1c2ccnn2CC12CCN(c1cnc(-c3cccc(Cl)c3Cl)cn1)CC2 [Example 31, (S)-1-(5-(2,3-dichlorophenyl)pyrazin-2-yl)-4′H,6′H-spiro[piperidine-4,5′-pyrrolo[1,2-b]pyrazol]-4′-amine] | > 500 | ≤ 50
N[C@@H]1c2ccnn2CC12CCN(c1cnc(Sc3ccc(F)cc3Cl)cn1)CC2 [Example 34, (S)-1-(5-((2-chloro-4-fluorophenyl)thio)pyrazin-2-yl)-4′H,6′H-spiro[piperidine-4,5′-pyrrolo[1,2-b]pyrazol]-4′-amine] | < 100 | ≤ 50
Cc1cccc(Sc2cnc(N3CCC4(CC3)Cn3nccc3[C@H]4N)cn2)c1Cl [Example 35, (S)-1-(5-((2-chloro-3-methylphenyl)thio)pyrazin-2-yl)-4′H,6′H-spiro[piperidine-4,5′-pyrrolo[1,2-b]pyrazol]-4′-amine] | < 100 | ≤ 50
COc1cccc2c(Sc3cnc(N4CCC5(CC4)Cn4nccc4[C@H]5N)cn3)ccnc12 [Example 37, (S)-1-(5-((8-methoxyquinolin-4-yl)thio)pyrazin-2-yl)-4′H,6′H-spiro[piperidine-4,5′-pyrrolo[1,2-b]pyrazol]-4′-amine] | < 100 | ≤ 50
N[C@@H]1c2ccnn2CC12CCN(c1cnc(Sc3cccc4c3CCO4)cn1)CC2 [Example 38, (S)-1-(5-((2,3-dihydrobenzofuran-4-yl)thio)pyrazin-2-yl)-4′H,6′H-spiro[piperidine-4,5′-pyrrolo[1,2-b]pyrazol]-4′-amine] | 100 to 500 | ≤ 50
Cc1cc(Cl)ccc1Sc1cnc(N2CCC3(CC2)Cn2nccc2[C@H]3N)cn1 [Example 40, (S)-1-(5-((4-chloro-2-methylphenyl)thio)pyrazin-2-yl)-4′H,6′H-spiro[piperidine-4,5′-pyrrolo[1,2-b]pyrazol]-4′-amine] | 100 to 500 | ≤ 50
N[C@@H]1c2ccnn2CC12CCN(c1cnc(Sc3ccc4c(c3)CCO4)cn1)CC2 [Example 42, (S)-1-(5-((2,3-dihydrobenzofuran-5-yl)thio)pyrazin-2-yl)-4′H,6′H-spiro[piperidine-4,5′-pyrrolo[1,2-b]pyrazol]-4′-amine] | < 100 | ≤ 50
N[C@@H]1c2ccnn2CC12CCN(c1cnc(Sc3cccc4c3CCC4)cn1)CC2 [Example 46, (S)-1-(5-((2,3-dihydro-1H-inden-4-yl)thio)pyrazin-2-yl)-4′H,6′H-spiro[piperidine-4,5′-pyrrolo[1,2-b]pyrazol]-4′-amine] | < 100 | ≤ 50
N[C@@H]1c2ccnn2CC12CCN(c1cnc(Sc3ccc(F)c(F)c3F)cn1)CC2 [Example 49, (S)-1-(5-((2,3,4-trifluorophenyl)thio)pyrazin-2-yl)-4′H,6′H-spiro[piperidine-4,5′-pyrrolo[1,2-b]pyrazol]-4′-amine] | < 100 | ≤ 50

More lines, now with the values ahead:

IC50 [1] [nM] | IC50 [2] [nM] | Compound
< 100 | ≤ 50 | Cc1ccccc1Sc1cnc(N2CCC3(CC2)Cn2nccc2[C@H]3N)cn1 [Example 26, (S)-1-(5-(o-tolylthio)pyrazin-2-yl)-4′H,6′H-spiro[piperidine-4,5′-pyrrolo[1,2-b]pyrazol]-4′-amine]
< 100 | ≤ 50 | CC(C)c1ccccc1Sc1cnc(N2CCC3(CC2)Cn2nccc2[C@H]3N)cn1 [Example 27, (S)-1-(5-((2-isopropylphenyl)thio)pyrazin-2-yl)-4′H,6′H-spiro[piperidine-4,5′-pyrrolo[1,2-b]pyrazol]-4′-amine]
< 100 | ≤ 50 | N[C@@H]1c2c(F)ccn2CC12CCN(c1cnc(Sc3cccc(Cl)c3Cl)cn1)CC2 [Example 29, (S)-1-(5-((2,3-dichlorophenyl)thio)pyrazin-2-yl)-7′-fluoro-1′H,3′H-spiro[piperidine-4,2′-pyrrolizin]-1′-amine]
< 100 | ≤ 50 | N[C@@H]1c2ccnn2CC12CCN(c1cnc(Sc3ccc(F)cc3F)cn1)CC2 [Example 32, (S)-1-(5-((2,4-difluorophenyl)thio)pyrazin-2-yl)-4′H,6′H-spiro[piperidine-4,5′-pyrrolo[1,2-b]pyrazol]-4′-amine]
< 100 | ≤ 50 | Cc1c(Cl)cccc1Sc1cnc(N2CCC3(CC2)Cn2nccc2[C@H]3N)cn1 [Example 33, (S)-1-(5-((3-chloro-2-methylphenyl)thio)pyrazin-2-yl)-4′H,6′H-spiro[piperidine-4,5′-pyrrolo[1,2-b]pyrazol]-4′-amine]
< 100 | ≤ 50 | N[C@@H]1c2ccnn2CC12CCN(c1cnc(Sc3ccccc3C(F)(F)F)cn1)CC2 [Example 41, (S)-1-(5-((2-(trifluoromethyl)phenyl)thio)pyrazin-2-yl)-4′H,6′H-spiro[piperidine-4,5′-pyrrolo[1,2-b]pyrazol]-4′-amine]
< 100 | ≤ 50 | N#Cc1cccc(Sc2cnc(N3CCC4(CC3)Cn3nccc3[C@H]4N)cn2)c1C(F)(F)F [Example 43, (S)-3-((5-(4′-amino-4′H,6′H-spiro[piperidine-4,5′-pyrrolo[1,2-b]pyrazol]-1-yl)pyrazin-2-yl)thio)-2-(trifluoromethyl)benzonitrile]
< 100 | ≤ 50 | Cc1cccc(Sc2cnc(N3CCC4(CC3)Cn3nccc3[C@H]4N)cn2)c1C [Example 47, (S)-1-(5-((2,3-dimethylphenyl)thio)pyrazin-2-yl)-4′H,6′H-spiro[piperidine-4,5′-pyrrolo[1,2-b]pyrazol]-4′-amine]
< 100 | ≤ 50 | N[C@@H]1c2ccnn2CC12CCN(c1cnc(Sc3cc(F)ccc3F)cn1)CC2 [Example 48, (S)-1-(5-((2,5-difluorophenyl)thio)pyrazin-2-yl)-4′H,6′H-spiro[piperidine-4,5′-pyrrolo[1,2-b]pyrazol]-4′-amine]
